Tests used:
[1] = test system: 3T3 cells; experiment: Effects of Gd concentration and levitation on cell viability (live/dead assay of spheroids); assay type: cell-based; conditions: 48 hours exposure to 0, 25, 50, 100 mM Gd^+; magnetic levitation (LEV) and hanging drop (HD); FIG. 30
Procedure: Referring now to FIG. 30, the effects of Gd concentration and levitation on cell viability are illustrated. 3T3 cells were exposed for 48 hours to different concentration of Gd^+ (0, 25, 50, 100 mM) during magnetic levitation (LEV) and hanging drop (HD). Spheroid viability was then assessed with live/dead assay (calcein/ethidium homodimer^−1). […] The white scale bar is 100 μm.

[2] = test system: red blood cells
Procedure: The levitation of red blood cells (RBC) was as follows. Blood samples from healthy donors were received from Stanford University Blood Center. Whole blood was diluted at varying ratios in PBS containing 30 mM Gd^+. Concentrations were described in the results. Concentrations of 450 and 90 million cells/mL of blood were used to measure blood stabilization time. Varying concentrations of blood, ranging from 250 to 0.8 million cells/mL were used to correlate the width of the blood band and cell concentrations.
Referring now to FIGS. 7A-7D, the effect of drugs was monitored using the levitation device. […] FIG. 7D illustrates the actual images that were analyzed to produce the plots of FIGS. 7B and 7C. In FIG. 7D, a certain density beads was added each time for calibration experiments.
Images were taken over time in 60 minutes. […] FIG. 6B is then a graph showing the area analysis. Area of the blood were measured using an image) script developed in the lab. […] Looking at FIG. 6C, the levitation height is measured using same script. Height is directly correlated with density of cells.

Row | Compound | spheroid viability (calcein/ethidium homodimer live/dead assay) [1] | levitation height of red blood cells ([2]; 75 mg/mL chloroquine spiked into red blood cells, with increasing time of exposure, FIG. 7A) | levitation height of blood sample in capillary channel ([2]; chloroquine at 7.5 mg/mL and 75 mg/mL, Sample-1, Sample-2, Sample-3, especially after the high dosage, FIG. 8) | density of blood (from levitation height) ([2]; i-LEV, higher drug concentration, within 50 minutes, FIG. 6C)
1 | O=C([O-])CN1CCN(CC(=O)[O-])CCN([C@H](CO)[C@H](O)CO)CCN(CC(=O)[O-])CC1.[Gd+3] [Gd^+] | majority of the cells in the aggregates are alive | – | – | –
2 | CCN(CC)CCCC(C)Nc1ccnc2cc(Cl)ccc12 (stereo not shown) [chloroquine] | – | decreases | levels out at a very low height | higher density
